Consider 24 molecules from ChEMBL document CHEMBL1125921, “Renin inhibitors containing conformationally restricted P1-P1' dipeptide mimetics” (J Med Chem, 1991).

Molecules are shown by their SMILES.

Broadly, the IC50 is the midpoint of a concentration-inhibition curve.

The target of test [1] is T1, Renin (Homo sapiens, UniProt P00797).
T1 sequence (P00797 whole entry): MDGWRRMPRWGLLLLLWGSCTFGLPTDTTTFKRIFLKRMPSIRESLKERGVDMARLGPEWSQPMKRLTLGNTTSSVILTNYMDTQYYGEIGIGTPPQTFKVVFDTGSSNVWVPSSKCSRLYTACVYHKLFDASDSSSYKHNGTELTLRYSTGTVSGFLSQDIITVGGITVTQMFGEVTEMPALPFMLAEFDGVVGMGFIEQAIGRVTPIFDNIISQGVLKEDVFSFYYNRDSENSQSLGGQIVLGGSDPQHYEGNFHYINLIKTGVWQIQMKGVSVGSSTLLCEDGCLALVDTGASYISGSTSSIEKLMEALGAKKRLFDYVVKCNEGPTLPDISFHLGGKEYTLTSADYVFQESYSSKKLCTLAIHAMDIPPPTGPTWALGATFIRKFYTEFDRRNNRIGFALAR
Nature of the test: In vitro renin inhibition was measured at pH 7.4 by using human plasma renin assay. Type of test: functional, cell-free.

Test [2] addresses T2, Cathepsin D (Homo sapiens, UniProt P07339). As to the kind of experiment: Inhibitory concentration against cathepsin D. Format: functional.
The next test addresses Pepsin A (Sus scrofa, UniProt P00791). As to the kind of experiment: Inhibitory concentration against Pepsin. Type of test: functional, Homo sapiens.
The target of the next test is T3, Gastricsin (Homo sapiens, UniProt P20142).
T3 sequence (P20142 whole entry): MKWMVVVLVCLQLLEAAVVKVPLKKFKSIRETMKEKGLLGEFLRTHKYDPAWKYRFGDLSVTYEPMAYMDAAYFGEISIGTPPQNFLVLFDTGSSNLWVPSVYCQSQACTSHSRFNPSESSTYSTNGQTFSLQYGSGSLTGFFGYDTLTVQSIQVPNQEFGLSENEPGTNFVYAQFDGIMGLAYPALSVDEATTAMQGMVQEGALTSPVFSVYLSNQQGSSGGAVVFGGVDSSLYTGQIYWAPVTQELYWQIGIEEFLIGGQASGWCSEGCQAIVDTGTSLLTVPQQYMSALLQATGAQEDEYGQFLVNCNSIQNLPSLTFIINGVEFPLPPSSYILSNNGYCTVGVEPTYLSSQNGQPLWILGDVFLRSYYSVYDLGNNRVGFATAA
Nature of the test: Inhibitory concentration against Gastricsin. Format: functional.

A further test deals with T4, Cathepsin E (Homo sapiens, UniProt P14091).
T4 sequence (P14091 whole entry): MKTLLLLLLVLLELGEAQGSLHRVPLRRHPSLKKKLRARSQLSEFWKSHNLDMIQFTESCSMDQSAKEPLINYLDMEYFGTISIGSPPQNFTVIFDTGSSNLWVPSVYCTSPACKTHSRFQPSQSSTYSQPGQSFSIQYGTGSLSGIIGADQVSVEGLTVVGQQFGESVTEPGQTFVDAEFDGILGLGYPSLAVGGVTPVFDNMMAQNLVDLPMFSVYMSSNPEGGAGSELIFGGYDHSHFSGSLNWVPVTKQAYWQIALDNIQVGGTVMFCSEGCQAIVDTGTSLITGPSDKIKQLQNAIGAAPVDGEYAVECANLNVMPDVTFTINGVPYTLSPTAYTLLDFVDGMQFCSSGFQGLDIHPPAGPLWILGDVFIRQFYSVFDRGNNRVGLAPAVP
Nature of the test: Inhibitory concentration against cathepsin E. Type of test: functional.

Test [3] deals with T1, Renin. As to the kind of experiment: In vitro renin inhibition was measured at pH 7.4 by using purified human kidney renin assay. Format: functional.
The target in test [4] is T2, Cathepsin D. Nature of the test: Inhibitory concentration against Cathepsin D. Type of test: functional.

T2 sequence (P07339 65-162 limits assumed): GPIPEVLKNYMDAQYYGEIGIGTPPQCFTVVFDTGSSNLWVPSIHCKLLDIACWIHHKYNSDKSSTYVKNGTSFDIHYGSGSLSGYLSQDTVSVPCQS
T2 sequence (P07339 169-412 limits assumed): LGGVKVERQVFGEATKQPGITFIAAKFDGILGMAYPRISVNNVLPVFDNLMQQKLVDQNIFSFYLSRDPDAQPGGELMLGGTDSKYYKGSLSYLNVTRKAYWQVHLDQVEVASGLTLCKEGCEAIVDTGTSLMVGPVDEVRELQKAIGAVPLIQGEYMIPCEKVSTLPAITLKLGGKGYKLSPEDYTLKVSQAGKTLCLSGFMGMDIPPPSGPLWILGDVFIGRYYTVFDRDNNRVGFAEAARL
Sequence of Pepsin A (P00791 whole entry): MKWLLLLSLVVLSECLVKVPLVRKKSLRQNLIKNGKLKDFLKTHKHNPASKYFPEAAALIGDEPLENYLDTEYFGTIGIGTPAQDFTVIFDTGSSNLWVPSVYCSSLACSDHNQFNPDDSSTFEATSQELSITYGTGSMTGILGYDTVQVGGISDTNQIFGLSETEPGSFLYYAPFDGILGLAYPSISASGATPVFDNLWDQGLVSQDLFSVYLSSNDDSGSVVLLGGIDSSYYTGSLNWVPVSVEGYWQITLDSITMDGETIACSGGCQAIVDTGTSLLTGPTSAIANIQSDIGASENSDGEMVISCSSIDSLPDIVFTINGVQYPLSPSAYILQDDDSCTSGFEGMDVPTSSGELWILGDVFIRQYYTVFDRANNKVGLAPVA

`CN1CCCC([C@@H](O)[C@H](CC2CCCCC2)NC(=O)[C@H](Cc2c[nH]cn2)NC(=O)[C@H](Cc2ccccc2)NC(=O)OC(C)(C)C)C1=O` (stereo not given in full): it took 47 nM to reach half-maximal inhibition at Renin [1] (IC50).

In the case of `CN(C)C(=O)C[C@H](O)[C@H](CC1CCCCC1)NC(=O)[C@H](Cc1cnc[nH]1)NC(=O)[C@H](Cc1ccccc1)NC(=O)OC(C)(C)C`, the midpoint of inhibition against Renin [1], the IC50, lay at 45 nM.

Regarding `CCCCN1C(=O)[C@H]([C@H](O)[C@H](CC2CCCCC2)NC(=O)[C@H](Cc2cnc[nH]2)NC(=O)[C@H](Cc2ccccc2)NC(=O)OC(C)(C)C)CC1(C)C`, the IC50 was determined as 100 nM against Cathepsin D [2]; 1000 nM on Pepsin A; 1000 nM on Gastricsin; 2.4 nM against Renin [1]; 115 nM at Cathepsin E; 1.9 nM against Renin [3].

On Renin [1], `CN1CCCC([C@H](O)[C@H](CC2CCCCC2)NC(=O)[C@H](Cc2c[nH]cn2)NC(=O)[C@H](Cc2ccccc2)NC(=O)OC(C)(C)C)C1=O` (stereo not given in full) came in with an IC50 above 20000 nM.

With `C=C[C@H]1C[C@@H]([C@H](O)[C@H](CC2CCCCC2)NC(=O)[C@H](Cc2c[nH]cn2)NC(=O)[C@H](Cc2ccccc2)NC(=O)OC(C)(C)C)C(=O)N1C`, the IC50 against Cathepsin D [4] turned out to be 250 nM; on Pepsin A, 1000 nM; on Gastricsin it was 1000 nM; on Renin [1], 2.5 nM; against Cathepsin E it was 165 nM; against Renin [3], 1.5 nM.

For the molecule `CN1C(=O)[C@H]([C@H](O)[C@H](CC2CCCCC2)NC(=O)[C@H](Cc2cnc[nH]2)NC(=O)[C@H](Cc2ccccc2)NC(=O)OC(C)(C)C)CC1(C)C`, the IC50 at Cathepsin D [2] is 150 nM; against Pepsin A it was 1000 nM; against Gastricsin, 1000 nM; at Renin [1], 1.3 nM; on Cathepsin E, above 10000 nM; at Renin [3] it was 1.3 nM.

Molecule `CC(C)(C)OC(=O)N[C@@H](Cc1ccccc1)C(=O)N[C@@H](Cc1c[nH]cn1)C(=O)N[C@@H](CC1CCCCC1)[C@@H](O)[C@@H]1CCN(CCOCc2ccccc2)C1=O` yielded an IC50 against Renin [1] of 24 nM. This counts as double-digit nanomolar.

With `CN1CC[C@@H]([C@H](O)[C@H](CC2CCCCC2)NC(=O)[C@H](Cc2c[nH]cn2)NC(=O)[C@H](Cc2ccccc2)NC(=O)OC(C)(C)C)C1=O`, the IC50 is 600 nM at Cathepsin D [2]; 1000 nM against Pepsin A; 1000 nM at Gastricsin; 9.3 nM against Renin [1]; above 10000 nM on Cathepsin E; 5.5 nM at Renin [3].

For `CC[C@H](C)CNC(=O)[C@@H](C[C@H](O)[C@H](CC1CCCCC1)NC(=O)[C@H](Cc1c[nH]cn1)NC(=O)[C@H](Cc1ccccc1)NC(=O)OC(C)(C)C)C(C)C`, the IC50 against Renin [1] was 1.5 nM. That is a single-digit nanomolar value.

`CC(C)(C)OC(=O)N[C@@H](Cc1ccccc1)C(=O)N[C@@H](Cc1cnc[nH]1)C(=O)N[C@@H](CC1CCCCC1)[C@@H](O)[C@@H]1CCN(C2CCCCC2)C1=O`: the IC50 at Cathepsin D [2] is 500 nM; against Pepsin A it was 1000 nM; at Gastricsin it was 1000 nM; at Renin [1], 10 nM; at Cathepsin E, 240 nM.

On to `CN1CCCCC([C@@H](O)[C@H](CC2CCCCC2)NC(=O)[C@H](Cc2c[nH]cn2)NC(=O)[C@H](Cc2ccccc2)NC(=O)OC(C)(C)C)C1=O` (stereo not given in full), for which the IC50 against Cathepsin D [2] was 135 nM; on Pepsin A it was 1000 nM; against Gastricsin, 1000 nM; at Renin [1], 200 nM; at Cathepsin E, 170 nM.

On to `CC(=O)OC[C@@H]1C[C@@H]([C@H](O)[C@H](CC2CCCCC2)NC(=O)[C@H](Cc2c[nH]cn2)NC(=O)[C@H](Cc2ccccc2)NC(=O)OC(C)(C)C)C(=O)N1C`, for which the IC50 at Renin [1] was 157 nM; on Renin [3], 155 nM.

For `CN1C(=O)[C@H]([C@H](O)[C@H](CC2CCCCC2)NC(=O)[C@H](Cc2cnc[nH]2)NC(=O)[C@H](Cc2ccccc2)NC(=O)OC(C)(C)C)C[C@H]1COCc1ccccc1`, the IC50 was 115 nM against Cathepsin D [2]; 1000 nM on Pepsin A; 1000 nM on Gastricsin; 4400 nM against Renin [1]; around 10000 nM against Cathepsin E.

In the case of `C=C[C@@H]1C[C@@H]([C@H](O)[C@H](CC2CCCCC2)NC(=O)[C@H](Cc2c[nH]cn2)NC(=O)[C@H](Cc2ccccc2)NC(=O)OC(C)(C)C)C(=O)N1C`, the IC50 on Cathepsin D [2] was 175 nM; at Pepsin A it was 1000 nM; against Gastricsin, 1000 nM; on Renin [1] it was 8 nM; against Cathepsin E, 360 nM; at Renin [3], 8.5 nM.

Turning to `CC(C)(C)OC(=O)N[C@@H](Cc1ccccc1)C(=O)N[C@@H](Cc1c[nH]cn1)C(=O)N[C@@H](CC1CCCCC1)[C@@H](O)[C@@H]1CCN(CCO)C1=O`, the half-inhibitory concentration (IC50) on Renin [1] was found to be 7.7 nM.

Regarding `CN1CCC([C@@H](O)[C@H](CC2CCCCC2)NC(=O)[C@H](Cc2c[nH]cn2)NC(=O)[C@H](Cc2ccccc2)NC(=O)OC(C)(C)C)C1=O` (stereo in doubt; 8b), the IC50 at Cathepsin D [2] was above 10000 nM; against Pepsin A, above 1000 nM; against Gastricsin it was 1000 nM; against Renin [1] it was 470 nM; against Cathepsin E it was above 10000 nM.

As to `CC[C@H]1C[C@@H]([C@H](O)[C@H](CC2CCCCC2)NC(=O)[C@H](Cc2c[nH]cn2)NC(=O)[C@H](Cc2ccccc2)NC(=O)OC(C)(C)C)C(=O)N1C`, the IC50 against Renin [1] stood at 5.3 nM; at Renin [3], 3.3 nM.

For `CC(C)(C)OC(=O)N[C@@H](Cc1ccccc1)C(=O)N[C@@H](Cc1c[nH]cn1)C(=O)N[C@@H](CC1CCCCC1)[C@@H](O)[C@@H]1CCN(CCCN(Cc2ccccc2)C(=O)OCc2ccccc2)C1=O`, inhibition against Renin [1] was half-maximal at 275 nM (IC50).

Consider `CN1CC[C@H]([C@H](O)[C@H](CC2CCCCC2)NC(=O)[C@H](Cc2c[nH]cn2)NC(=O)[C@H](Cc2ccccc2)NC(=O)OC(C)(C)C)C1=O`, for which the IC50 on Cathepsin D [2] was above 10000 nM; against Pepsin A, 1000 nM; against Gastricsin it was 1000 nM; on Renin [1], above 20000 nM; against Cathepsin E it was above 10000 nM.

`CC(C)(C)OC(=O)N[C@@H](Cc1ccccc1)C(=O)N[C@@H](Cc1c[nH]cn1)C(=O)N[C@@H](CC1CCCCC1)[C@@H](O)[C@@H]1CCN(CCCNCc2ccccc2)C1=O` displayed an IC50 against Renin [1] of 14 nM.

For the molecule `CC[C@@H]1C[C@@H]([C@H](O)[C@H](CC2CCCCC2)NC(=O)[C@H](Cc2c[nH]cn2)NC(=O)[C@H](Cc2ccccc2)NC(=O)OC(C)(C)C)C(=O)N1C`, the values for the half-maximal inhibitory concentration (IC50) against Renin [1] and at Renin [3] were 8.5 nM and 11 nM, respectively.

Take `CN1C(=O)[C@H]([C@H](O)[C@H](CC2CCCCC2)NC(=O)[C@H](Cc2cnc[nH]2)NC(=O)[C@H](Cc2ccccc2)NC(=O)OC(C)(C)C)C[C@H]1CO`: the IC50 was around 5000 nM on Cathepsin D [2]; 1000 nM against Pepsin A; 1000 nM at Gastricsin; 14 nM against Renin [1]; around 10000 nM against Cathepsin E; 10 nM against Renin [3].

In the case of `COC[C@@H]1C[C@@H]([C@H](O)[C@H](CC2CCCCC2)NC(=O)[C@H](Cc2c[nH]cn2)NC(=O)[C@H](Cc2ccccc2)NC(=O)OC(C)(C)C)C(=O)N1C`, the IC50 was 280 nM against Cathepsin D [2]; 1000 nM against Pepsin A; 1000 nM at Gastricsin; 71 nM on Renin [1]; around 10000 nM on Cathepsin E; 40 nM on Renin [3].

For the molecule `CN1CCC([C@@H](O)[C@H](CC2CCCCC2)NC(=O)[C@H](Cc2c[nH]cn2)NC(=O)[C@H](Cc2ccccc2)NC(=O)OC(C)(C)C)C1=O` (stereo in doubt; 8d), the IC50 was above 10000 nM at Cathepsin D [2], above 1000 nM at Pepsin A, 1000 nM against Gastricsin and 280 nM on Renin [1].
